# Data: patent US4971965A, “Antibiotics TAN-1057” (Takeda Chemical Industries, Ltd., priority 1988, dated 1990)
# Experiments:
# Mycoplasma pulmonis M-53 = assay: MIC against Mycoplasma (Table 3); settings: M53, 120 h
# [1] = test system: Bacteroides thermophilis PNA-1-24; assay: MIC against anaerobic bacteria (Table 3); type: cell-based; settings: PNA124, 10^6 CFU/ml, GAM medium, Gas Pack, 37° C., 18 hours
# [2] = test system: Clostridium perfringens PB6K; assay: microbe, parasite or virus in culture; type: cell-based; settings: 18 h
# [3] = test system: Bacteroides fladilis ATCC 2509; assay: MIC against anaerobic bacteria (Table 3); type: cell-based; settings: ATCC2509, 10^6 CFU/ml, GAM medium, Gas Pack, 37° C., 18 hours
# [4] = test system: Peptostreptococcus anaerobium B-40; assay: MIC against anaerobic bacteria (Table 3); type: cell-based; settings: B40, 10^6 CFU/ml, GAM medium, Gas Pack, 37° C., 18 hours
# [5] = test system: Treponema hyodicenterie 78/A; assay: MIC against Spirochaeta (Table 3); settings: 48 h
# [6] = test system: Staphylococcus aureus 308A-1; assay: Therapeutic effect on infectious disease in mice (Table 5); type: in vivo
# [7] = Conversion in aqueous solution; type: physicochemical; settings: room temperature
# From the text: For example, in case that the mixture of TAN-1057A and B is isolated as crystals of the sulfate, the ratio of TAN-1057A and B is about 6 to 8:4 to 2.
# The term "Antibiotics TAN-1057" in the present specification includes also a mixture which contains TAN-1057A, B, C and D in an optional combination and an optional ratio thereof.
# [8] = test system: Fusobacterium necroform VPI 2891; assay: MIC against anaerobic bacteria (Table 3); type: cell-based; settings: VPI2891, 10^6 CFU/ml, GAM medium, Gas Pack, 37° C., 18 hours
# Experimental: (§1) Inoculum size: 10^6 CFU/ml
# (§2) ^Note 1 GAM medium(Nissui),
# (§3) Gas Pack (BBL), 37° C., 18 hours
# [9] = test system: Lactobacillus acidophilus ATCC 4356; assay: MIC against anaerobic bacteria (Table 3); type: cell-based; settings: ATCC4356, 10^6 CFU/ml, GAM medium, Gas Pack, 37° C., 18 hours
# Experimental: as §1, §2, §3
# [10] = test system: Eubacterium sp. biurens 515; assay: MIC against anaerobic bacteria (Table 3); type: cell-based; settings: 10^6 CFU/ml, GAM medium, Gas Pack, 37° C., 18 hours
# Experimental: as §1, §2, §3
# [11] = test system: Mycoplasma garisepticum TB-3A; assay: MIC against Mycoplasma (Table 3); type: cell-based; settings: TB3A, 120 h, 10^6 CFU/ml, Hayflick medium, 37° C., 5 days
# [12] = test system: Treponema hyodicenterie DJ70PI; assay: MIC against Spirochaeta (Table 3); settings: 48 h
# [13] = test system: Streptococcus faecalis IFO 3989; type: cell-based; settings: Enterococcus faecalis, IFO3989, read-out: Minimum Inhibitory Conc. (MIC)
# Experimental: (§4) (Note 1) Measurement was conducted by employing a medium consisting of DY
# (§5) medium [Bacto Antibiotic Medium 3 (Difco Laboratories, USA)(17.5 g), Bact
# (§6) yeast extract(Difco Laboratories, USA)(5.0 g) and distilled water(pH
# (§7) unadjusted)(1000 ml)], using approximately 10^6 colony forming unit/m
# (§8) of inoculum, by means of the agar dilution method.
# [14] = test system: Staphylococcus epidermidis IFO 3762; type: cell-based; settings: IFO3762, agar dilution, DY medium, pH unadjusted, approx. 10^6 CFU/ml, read-out: Minimum Inhibitory Conc. (MIC)
# Experimental: as §4, §5, §6, §7, §8
# Bacillus cereus FDA 5 = type: cell-based; settings: FDA5, agar dilution, DY medium, pH unadjusted, approx. 10^6 CFU/ml, read-out: Minimum Inhibitory Conc. (MIC)
# Experimental: as §4, §5, §6, §7, §8
# [15] = test system: Acinetobacter calcoaceticus IFO 12552; type: cell-based; settings: IFO12552, agar dilution, DY medium, pH unadjusted, approx. 10^6 CFU/ml, read-out: Minimum Inhibitory Conc. (MIC)
# Experimental: as §4, §5, §6, §7, §8
# Aeromonas caviae NCW = type: cell-based; settings: read-out: Minimum Inhibitory Conc. (MIC)
# Experimental: as §4, §5, §6, §7, §8
# [16] = test system: Proteus vulgaris IFO 3988; type: cell-based; settings: IFO3988, agar dilution, DY medium, pH unadjusted, approx. 10^6 CFU/ml, read-out: Minimum Inhibitory Conc. (MIC)
# Experimental: as §4, §5, §6, §7, §8
# Escherichia coli LD-2 = type: cell-based; settings: LD2, read-out: Minimum Inhibitory Conc. (MIC)
# Experimental: as §4, §5, §6, §7, §8
# [17] = test system: Bacillus subtilis NIHJ PCI 219; type: cell-based; settings: read-out: Minimum Inhibitory Conc. (MIC)
# Experimental: as §4, §5, §6, §7, §8
# [18] = test system: Micrococcus luteus IFO 12708; type: cell-based; settings: IFO12708, read-out: Minimum Inhibitory Conc. (MIC)
# Experimental: as §4, §5, §6, §7, §8
compound,measurement,setting,value
CN(C(=O)C[C@@H](N)CCCNC(=N)N)[C@H]1CNC(NC(N)=O)=NC1=O [TAN-1057A],MIC,Mycoplasma pulmonis M-53,0.39 µg/mL
same,MIC,[1],0.78 µg/mL
same,MIC,[2],12.5 µg/mL
same,MIC,[3],50 µg/mL
same,MIC,[4],25 µg/mL
same,MIC,[5],100 µg/mL
same,ED50,"[6]; 308A1, ip infection, Oral",~1 mg/kg
same,ED50,"[6]; 308A1, sc, ip infection, Subcutaneous",~0.1 mg/kg
same,conversion of TAN-1057A and B into each other,[7],converted easily each other
same,MIC,[8],3.13 µg/mL
same,MIC,[9],6.25 µg/mL
same,MIC,[10],12.5 µg/mL
same,MIC,[11],3.13 µg/mL
same,MIC,[12],100 µg/mL
same,MIC,[13],12.5 µg/mL
same,MIC,[14],0.78 µg/mL
same,MIC,Bacillus cereus FDA 5,25 µg/mL
same,MIC,[15],50 µg/mL
same,MIC,Aeromonas caviae NCW,12.5 µg/mL
same,MIC,[16],> 100 µg/mL
same,MIC,Escherichia coli LD-2,12.5 µg/mL
same,MIC,[17],12.5 µg/mL
same,MIC,[18],3.13 µg/mL
